Measurements reported in PubChem BioAssay (NCI).
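Growth conditions: 96-well plates. Treatment: test compound, 48 hours, 5 concentrations. Analysis: linear interpolation between bracketing concentrations; unreached endpoints set to highest concentration. TGI: concentration producing complete growth inhibition.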

How the values were obtained:
Experiment in all cases: NCI tumour cell line growth inhibition, 48 h
[1] = system: A498 renal
[2] = system: CAKI-1 renal
[3] = system: M14 melanoma
[4] = system: MDA-N
[5] = system: NCI-H226 lung
[6] = system: NCI-H460 lung
[7] = system: OVCAR-8 ovarian
[8] = system: RXF 393 renal
[9] = system: SF-295 CNS
[10] = system: SK-MEL-28 melanoma

Measured: TGI

COc1cc2nc3n(c(=O)c2cc1OC)CCCCC3
> 100 µM: all assays above
